Experimental data: ChEMBL document CHEMBL4308841, “Synthesis, in vitro antiproliferative activity, and kinase inhibitory effects of pyrazole-containing diarylureas and diarylamides” (Eur J Med Chem, 2018)

Tests used:
MOLT-4 = experiment: Growth inhibition of human MOLT4 cells incubated for 48 hrs by sulforhodamine B assay; assay type: functional, cell-based; conditions: MOLT-4, 48 h
SR [1] = experiment: Growth inhibition of human SR cells incubated for 48 hrs by sulforhodamine B assay; assay type: functional, cell-based
SK-MEL-2 = experiment: Growth inhibition of human SK-MEL-2 cells incubated for 48 hrs by sulforhodamine B assay; assay type: functional, cell-based; conditions: SK-MEL-2, 48 h
OVCAR-8 = experiment: Growth inhibition of human OVCAR8 cells incubated for 48 hrs by sulforhodamine B assay; assay type: functional, cell-based; conditions: OVCAR-8, 48 h
CAKI-1 = experiment: Growth inhibition of human Caki1 cells incubated for 48 hrs by sulforhodamine B assay; assay type: functional, cell-based; conditions: CAKI-1, 48 h
NCI-H226 [2] = experiment: Growth inhibition of human NCI-H226 cells assessed as cell growth at 0.01 uM incubated for 48 hrs by sulforhodamine B assay relative to control; assay type: functional; conditions: NCI-H226, 48 h, read-out: Activity
HCC 2998 [3] = experiment: Growth inhibition of human HCC2998 cells assessed as cell growth at 0.01 uM incubated for 48 hrs by sulforhodamine B assay relative to control; assay type: functional; conditions: HCC 2998, 48 h, read-out: Activity
HCT-116 = experiment: Growth inhibition of human HCT116 cells assessed as cell growth at 0.01 uM incubated for 48 hrs by sulforhodamine B assay relative to control; assay type: functional; conditions: HCT-116, 48 h, read-out: Activity
RPMI-8226 = experiment: Growth inhibition of human RPMI8226 cells assessed as cell growth at 0.1 uM incubated for 48 hrs by sulforhodamine B assay relative to control; assay type: functional; conditions: RPMI-8226, 48 h, read-out: Activity
NCI-H226 [4] = experiment: Growth inhibition of human NCI-H226 cells assessed as cell growth at 0.1 uM incubated for 48 hrs by sulforhodamine B assay relative to control; assay type: functional; conditions: NCI-H226, 48 h, read-out: Activity
U-251 = experiment: Growth inhibition of human U251 cells assessed as cell growth at 0.1 uM incubated for 48 hrs by sulforhodamine B assay relative to control; assay type: functional; conditions: U-251, 48 h, read-out: Activity
OVCAR-5 = experiment: Growth inhibition of human OVCAR5 cells assessed as cell growth at 0.1 uM incubated for 48 hrs by sulforhodamine B assay relative to control; assay type: functional; conditions: OVCAR-5, 48 h, read-out: Activity
RXF 393 = experiment: Growth inhibition of human RXF393 cells assessed as cell growth at 0.1 uM incubated for 48 hrs by sulforhodamine B assay relative to control; assay type: functional; conditions: RXF 393, 48 h, read-out: Activity
BT-549 [5] = experiment: Growth inhibition of human BT549 cells assessed as cell growth at 0.1 uM incubated for 48 hrs by sulforhodamine B assay relative to control; assay type: functional; conditions: BT-549, 48 h, read-out: Activity
SR [6] = experiment: Growth inhibition of human SR cells assessed as cell growth at 1 uM incubated for 48 hrs by sulforhodamine B assay relative to control; assay type: functional; conditions: read-out: Activity
HCC 2998 [7] = experiment: Growth inhibition of human HCC2998 cells assessed as cell growth at 1 uM incubated for 48 hrs by sulforhodamine B assay relative to control; assay type: functional; conditions: HCC 2998, 48 h, read-out: Activity
SF-539 = experiment: Growth inhibition of human SF539 cells assessed as cell growth at 1 uM incubated for 48 hrs by sulforhodamine B assay relative to control; assay type: functional; conditions: SF-539, 48 h, read-out: Activity
SNB-19 = experiment: Growth inhibition of human SNB19 cells assessed as cell growth at 1 uM incubated for 48 hrs by sulforhodamine B assay relative to control; assay type: functional; conditions: SNB-19, 48 h, read-out: Activity
M14 = experiment: Growth inhibition of human M14 cells assessed as cell growth at 1 uM incubated for 48 hrs by sulforhodamine B assay relative to control; assay type: functional; conditions: M14, 48 h, read-out: Activity
OVCAR-3 = experiment: Growth inhibition of human OVCAR3 cells assessed as cell growth at 1 uM incubated for 48 hrs by sulforhodamine B assay relative to control; assay type: functional; conditions: OVCAR-3, 48 h, read-out: Activity
UO-31 = experiment: Growth inhibition of human UO31 cells assessed as cell growth at 1 uM incubated for 48 hrs by sulforhodamine B assay relative to control; assay type: functional; conditions: UO-31, 48 h, read-out: Activity
MCF7 [8] = experiment: Growth inhibition of human MCF7 cells assessed as cell growth at 1 uM incubated for 48 hrs by sulforhodamine B assay relative to control; assay type: functional; conditions: MCF7, 48 h, read-out: Activity
K562 = experiment: Growth inhibition of human K562 cells assessed as cell growth at 100 uM incubated for 48 hrs by sulforhodamine B assay relative to control; assay type: functional; conditions: K562, 48 h, read-out: Activity
HCC 2998 [9] = experiment: Growth inhibition of human HCC2998 cells assessed as cell growth at 100 uM incubated for 48 hrs by sulforhodamine B assay relative to control; assay type: functional; conditions: HCC 2998, 48 h, read-out: Activity
MDA-MB-435 = experiment: Growth inhibition of human MDA-MB-435 cells assessed as cell growth at 100 uM incubated for 48 hrs by sulforhodamine B assay relative to control; assay type: functional; conditions: MDA-MB-435, 48 h, read-out: Activity
A498 = experiment: Growth inhibition of human A498 cells assessed as cell growth at 100 uM incubated for 48 hrs by sulforhodamine B assay relative to control; assay type: functional; conditions: A498, 48 h, read-out: Activity
SN12C = experiment: Growth inhibition of human SN12C cells assessed as cell growth at 100 uM incubated for 48 hrs by sulforhodamine B assay relative to control; assay type: functional; conditions: read-out: Activity
MCF7 [10] = experiment: Growth inhibition of human MCF7 cells assessed as cell growth at 100 uM incubated for 48 hrs by sulforhodamine B assay relative to control; assay type: functional; conditions: MCF7, 48 h, read-out: Activity
BT-549 [11] = experiment: Growth inhibition of human BT549 cells assessed as cell growth at 100 uM incubated for 48 hrs by sulforhodamine B assay relative to control; assay type: functional; conditions: BT-549, 48 h, read-out: Activity
MDA-MB-468 = experiment: Growth inhibition of human MDA-MB-468 cells assessed as cell growth at 100 uM incubated for 48 hrs by sulforhodamine B assay relative to control; assay type: functional; conditions: MDA-MB-468, 48 h, read-out: Activity
[12] = read-out: LC50 (the source's name)
[13] = read-out: pLC50 (the source's name) (converted)

With `COc1cc(Cl)cc(-c2nn(-c3cccc(NC(=O)c4cccc(C(F)(F)F)c4)c3)cc2-c2ccncc2)c1` the GI50 (MOLT-4; read-out: GI50) was 2.73 µM, the CC50 (MOLT-4; [12]) was over 100 µM and the TGI (MOLT-4; read-out: TGI) was over 100 µM. For the same compound, the GI50 (MOLT-4; read-out: pGI50 (converted)) was 2.75 µM, the CC50 (MOLT-4; [13]) was over 100 µM and the TGI (MOLT-4; read-out: pTGI (converted)) was over 100 µM. The GI50 (SR [1]; read-out: GI50) was 2.48 µM, the CC50 (SR [1]; [12]) was over 100 µM and the TGI (SR [1]; read-out: TGI) was over 100 µM. The GI50 (SR [1]; read-out: pGI50 (converted)) was 3.09 µM, the CC50 (SR [1]; [13]) was over 100 µM and the TGI (SR [1]; read-out: pTGI (converted)) was over 100 µM. The GI50 (SK-MEL-2; read-out: GI50) was 0.78 µM, the CC50 (SK-MEL-2; [12]) was over 100 µM and the TGI (SK-MEL-2; read-out: TGI) was over 100 µM. It also gave a GI50 (SK-MEL-2; read-out: pGI50 (converted)) of 6.76 µM, a CC50 (SK-MEL-2; [13]) of over 100 µM and a TGI (SK-MEL-2; read-out: pTGI (converted)) of over 100 µM. For the same compound, the GI50 (OVCAR-8; read-out: GI50) was 5.58 µM, the CC50 (OVCAR-8; [12]) was over 100 µM and the TGI (OVCAR-8; read-out: TGI) was over 100 µM. The GI50 (OVCAR-8; read-out: pGI50 (converted)) was 6.92 µM, the CC50 (OVCAR-8; [13]) was over 100 µM and the TGI (OVCAR-8; read-out: pTGI (converted)) was over 100 µM. For the same compound, the GI50 (CAKI-1; read-out: GI50) was 3.58 µM, the CC50 (CAKI-1; [12]) was over 100 µM and the TGI (CAKI-1; read-out: TGI) was over 100 µM. It also gave a GI50 (CAKI-1; read-out: pGI50 (converted)) of 3.89 µM, a CC50 (CAKI-1; [13]) of over 100 µM and a TGI (CAKI-1; read-out: pTGI (converted)) of over 100 µM. It also gave a growth at 0.01 µM (NCI-H226 [2]) of 95%, a growth at 0.01 µM (HCC 2998 [3]) of 108% and a growth at 0.01 µM (HCT-116) of 100%. For the same compound, the growth at 0.1 µM (RPMI-8226) was 97%, the growth at 0.1 µM (NCI-H226 [4]) was 90% and the growth at 0.1 µM (U-251) was 91%. The growth at 0.1 µM (OVCAR-5) was 94%, the growth at 0.1 µM (RXF 393) was 65% and the growth at 0.1 µM (BT-549 [5]) was 94%. For the same compound, the growth at 1 µM (SR [6]) was 58%, the growth at 1 µM (HCC 2998 [7]) was 103% and the growth at 1 µM (SF-539) was 52%. It also gave a growth at 1 µM (SNB-19) of 100%, a growth at 1 µM (M14) of 83% and a growth at 1 µM (OVCAR-3) of 102%. For the same compound, the growth at 1 µM (UO-31) was 54%, the growth at 1 µM (MCF7 [8]) was 57% and the growth at 100 µM (K562) was 32%. It also gave a growth at 100 µM (HCC 2998 [9]) of 15%, a growth at 100 µM (MDA-MB-435) of 52% and a growth at 100 µM (A498) of 59%. It also gave a growth at 100 µM (SN12C) of 52%, a growth at 100 µM (MCF7 [10]) of 38% and a growth at 100 µM (BT-549 [11]) of 54%. It also gave a growth at 100 µM (MDA-MB-468) of 28%.
